According to patent US20260022142A1, “MACROCYCLIC IMMUNOMODULATORS” (Bristol-Myers Squibb Company, priority 2022, published 2026):
Bridge positions count the residues as written; N and C are the ends. Square brackets hold non-standard residues; d marks the D form. Peptide text beside a SMILES is read from it. * marks the point of attachment. Phe(4-COOH) = N[C@@H](Cc1ccc(C(=O)O)cc1)C(=O)O; Bip = N[C@@H](Cc1ccc(-c2ccccc2)cc1)C(=O)O; NH(CH2)14COOH = O=C(O)CCCCCCCCCCCCCCN*; Phe(3-Me) = Cc1cccc(C[C@H](N)C(=O)O)c1; NH(CH2)12COOH = O=C(O)CCCCCCCCCCCCN*; Val(3-OH) = CC(C)(O)[C@H](N)C(=O)O; Cha = N[C@@H](CC1CCCCC1)C(=O)O; Carboxymethyl = O=C(O)C*; Orn = NCCC[C@H](N)C(=O)O; Aun = NCCCCCCCCCCC(=O)O; Dab = NCC[C@H](N)C(=O)O; Nva = CCC[C@H](N)C(=O)O; Abu = CC[C@H](N)C(=O)O; AEEA = NCCOCCOCC(=O)O

Molecular target: T1, PD-1/PD-L1 interaction (PE-labeled human PD-L1-Ig binding to Jurkat cell line over-expressing human PD-1) (Homo sapiens, UniProt Q15116)
T1 construct: expressed in transfected cells; host or cells: Jurkat
Assay: Jurkat-PD-1 Cell Binding High-Content Screening Assay (CBA)
Type: cell-based
Details: Jurkat cell line over-expressing human PD-1; PE-labeled PD-L1-Ig 20 nM final; read-out: Jurkat hPD1-PDL1 IC50
Summary of the method: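 First, compound is added to PD-1-expressing Jurkat cells in serum-containing DMEM and left 2 h at 37° C. Next, PE-conjugated PD-L1-Ig is introduced at 20 nM final concentration for 1 hour. Finally, cells are fixed in 4% paraformaldehyde with Hoechst 33342, washed and imaged.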

T1 sequence (Q15116 25-288): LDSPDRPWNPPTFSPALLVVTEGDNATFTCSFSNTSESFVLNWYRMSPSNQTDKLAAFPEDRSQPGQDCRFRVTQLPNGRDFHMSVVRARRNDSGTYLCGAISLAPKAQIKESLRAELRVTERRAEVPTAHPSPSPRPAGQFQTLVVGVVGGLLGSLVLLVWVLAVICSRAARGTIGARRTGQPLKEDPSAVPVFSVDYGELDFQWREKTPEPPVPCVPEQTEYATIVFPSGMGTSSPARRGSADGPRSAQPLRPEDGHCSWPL

SMILES | IC50 [nM]
CCC[C@@H]1NC(=O)CSC[C@@H](C(=O)N[C@@H](CCN)C(=O)NCCOCCOCC(=O)NCCCCCCCCCCCCCCC(=O)O)NC(=O)[C@H](CO)NC(=O)[C@H](C(C)(C)O)NC(=O)[C@H](CC2CCCCC2)NC(=O)[C@H](CCN)NC(=O)[C@@H](CC(C)C)NC(=O)[C@H](CCCN)NC(=O)[C@H](Cc2ccc(OCC(=O)O)cc2)NC(=O)[C@H](Cc2ccc(-c3ccccc3)cc2)NC(=O)[C@H](Cc2ccc(OCC(=O)O)cc2)NC(=O)[C@H](Cc2cccc(C)c2)NC(=O)[C@H](CC(=O)O)NC(=O)[C@H](Cc2ccc(OCC(=O)O)cc2)NC1=O [Compound 2868] ({CH2CO}-[Nva]Y(Carboxymethyl)D[Phe(3-Me)]Y(Carboxymethyl)[Bip]Y(Carboxymethyl)[Orn][dL][Dab][Cha][Val(3-OH)]SC[Dab][AEEA]-{NH(CH2)14COOH}; thioether N-14) | 467
Cc1cccc(C[C@@H]2NC(=O)[C@H](CC(=O)O)NC(=O)[C@H](Cc3ccc(OCC(=O)O)cc3)NC(=O)[C@H](CCN)NC(=O)CSC[C@@H](C(=O)N[C@@H](CCN)C(=O)NCCOCCOCC(=O)NCCCCCCCCCCCCCCC(=O)O)NC(=O)[C@H](Cc3c[nH]cn3)NC(=O)[C@H](C(C)(C)O)NC(=O)[C@H](CC3CCCCC3)NC(=O)[C@H](CCN)NC(=O)[C@@H](CC(C)C)NC(=O)[C@H](CCCN)NC(=O)[C@H](Cc3ccc(OCC(=O)O)cc3)NC(=O)[C@H](Cc3ccc(-c4ccccc4)cc3)NC(=O)[C@H](Cc3ccc(OCC(=O)O)cc3)NC2=O)c1 [Compound 2872] ({CH2CO}-[Dab]Y(Carboxymethyl)D[Phe(3-Me)]Y(Carboxymethyl)[Bip]Y(Carboxymethyl)[Orn][dL][Dab][Cha][Val(3-OH)]HC[Dab][AEEA]-{NH(CH2)14COOH}; thioether N-14) | 83.8
Cc1cccc(C[C@@H]2NC(=O)[C@H](CC(=O)O)NC(=O)[C@H](Cc3ccc(OCC(=O)O)cc3)NC(=O)[C@H](CCN)NC(=O)CSC[C@@H](C(=O)N[C@@H](CCN)C(=O)NCCOCCOCC(=O)NCCOCCOCC(=O)NCCCCCCCCCCCCC(=O)O)NC(=O)[C@H](CO)NC(=O)[C@H](C(C)(C)O)NC(=O)[C@H](CC3CCCCC3)NC(=O)[C@H](Cc3c[nH]cn3)NC(=O)[C@@H](CC(C)C)NC(=O)[C@H](CCCN)NC(=O)[C@H](Cc3ccc(OCC(=O)O)cc3)NC(=O)[C@H](Cc3ccc(-c4ccccc4)cc3)NC(=O)[C@H](Cc3ccc(OCC(=O)O)cc3)NC2=O)c1 [Compound 2873] ({CH2CO}-[Dab]Y(Carboxymethyl)D[Phe(3-Me)]Y(Carboxymethyl)[Bip]Y(Carboxymethyl)[Orn][dL]H[Cha][Val(3-OH)]SC[Dab][AEEA][AEEA]-{NH(CH2)12COOH}; thioether N-14) | 34.5
Cc1cccc(C[C@@H]2NC(=O)[C@H](CC(=O)O)NC(=O)[C@H](Cc3ccc(OCC(=O)O)cc3)NC(=O)[C@H](CCN)NC(=O)CSC[C@@H](C(=O)N[C@@H](CCN)C(=O)NCCOCCOCC(=O)NCCCCCCCCCCCCCCC(=O)O)NC(=O)[C@H](CO)NC(=O)[C@H](C(C)(C)O)NC(=O)[C@H](CC3CCCCC3)NC(=O)[C@H](Cc3c[nH]cn3)NC(=O)[C@@H](CC(C)C)NC(=O)[C@H](CCCN)NC(=O)[C@H](Cc3ccc(OCC(=O)O)cc3)NC(=O)[C@H](Cc3ccc(-c4ccccc4)cc3)NC(=O)[C@H](Cc3ccc(OCC(=O)O)cc3)NC2=O)c1 [Compound 2876] ({CH2CO}-[Dab]Y(Carboxymethyl)D[Phe(3-Me)]Y(Carboxymethyl)[Bip]Y(Carboxymethyl)[Orn][dL]H[Cha][Val(3-OH)]SC[Dab][AEEA]-{NH(CH2)14COOH}; thioether N-14) | 212
CCC[C@@H]1NC(=O)CSC[C@@H](C(=O)N[C@@H](CCN)C(=O)NCCOCCOCC(=O)NCCOCCOCC(=O)NCCCCCCCCCCCCCCC(=O)O)NC(=O)[C@H](CO)NC(=O)[C@H](C(C)(C)O)NC(=O)[C@H](CC2CCCCC2)NC(=O)[C@H](CCN)NC(=O)[C@@H](CC(C)C)NC(=O)[C@H](CCCN)NC(=O)[C@H](Cc2ccc(C(=O)O)cc2)NC(=O)[C@H](Cc2ccc(-c3ccccc3)cc2)NC(=O)[C@H](Cc2ccc(C(=O)O)cc2)NC(=O)[C@H](Cc2cccc(C)c2)NC(=O)[C@H](CC(=O)O)NC(=O)[C@H](Cc2ccc(OCC(=O)O)cc2)NC1=O [Compound 2884] ({CH2CO}-[Nva]Y(Carboxymethyl)D[Phe(3-Me)][Phe(4-COOH)][Bip][Phe(4-COOH)][Orn][dL][Dab][Cha][Val(3-OH)]SC[Dab][AEEA][AEEA]-{NH(CH2)14COOH}; thioether N-14) | 133

These reach a lower IC50. Values come first.

IC50 [nM] | SMILES
16.9 | Cc1cccc(C[C@@H]2NC(=O)[C@H](CC(=O)O)NC(=O)[C@H](Cc3ccc(OCC(=O)O)cc3)NC(=O)[C@H](CCN)NC(=O)CSC[C@@H](C(=O)N[C@@H](CCN)C(=O)NCCOCCOCC(=O)NCCCCCCCCCCCCC(=O)O)NC(=O)[C@H](Cc3c[nH]cn3)NC(=O)[C@H](C(C)(C)O)NC(=O)[C@H](CC3CCCCC3)NC(=O)[C@H](CCN)NC(=O)[C@@H](CC(C)C)NC(=O)[C@H](CCCN)NC(=O)[C@H](Cc3ccc(OCC(=O)O)cc3)NC(=O)[C@H](Cc3ccc(-c4ccccc4)cc3)NC(=O)[C@H](Cc3ccc(OCC(=O)O)cc3)NC2=O)c1 [Compound 2871] ({CH2CO}-[Dab]Y(Carboxymethyl)D[Phe(3-Me)]Y(Carboxymethyl)[Bip]Y(Carboxymethyl)[Orn][dL][Dab][Cha][Val(3-OH)]HC[Dab][AEEA]-{NH(CH2)12COOH}; thioether N-14)
8.3 | Cc1cccc(C[C@@H]2NC(=O)[C@H](CC(=O)O)NC(=O)[C@H](Cc3ccc(OCC(=O)O)cc3)NC(=O)[C@H](CCN)NC(=O)CSC[C@@H](C(=O)N[C@@H](CCN)C(=O)NCCOCCOCC(=O)NCCCCCCCCCCCCC(=O)O)NC(=O)[C@H](CO)NC(=O)[C@H](C(C)(C)O)NC(=O)[C@H](CC3CCCCC3)NC(=O)[C@H](Cc3c[nH]cn3)NC(=O)[C@@H](CC(C)C)NC(=O)[C@H](CCCN)NC(=O)[C@H](Cc3ccc(OCC(=O)O)cc3)NC(=O)[C@H](Cc3ccc(-c4ccccc4)cc3)NC(=O)[C@H](Cc3ccc(OCC(=O)O)cc3)NC2=O)c1 [Compound 2875] ({CH2CO}-[Dab]Y(Carboxymethyl)D[Phe(3-Me)]Y(Carboxymethyl)[Bip]Y(Carboxymethyl)[Orn][dL]H[Cha][Val(3-OH)]SC[Dab][AEEA]-{NH(CH2)12COOH}; thioether N-14)
4.9 | CCC[C@@H]1NC(=O)CSC[C@@H](C(=O)N[C@@H](CCN)C(=O)NCCOCCOCC(=O)NCCOCCOCC(=O)NCCCCCCCCCCCCC(=O)O)NC(=O)[C@H](CO)NC(=O)[C@H](C(C)(C)O)NC(=O)[C@H](CC2CCCCC2)NC(=O)[C@H](CCN)NC(=O)[C@@H](CC(C)C)NC(=O)[C@H](CCCN)NC(=O)[C@H](Cc2ccc(C(=O)O)cc2)NC(=O)[C@H](Cc2ccc(-c3ccccc3)cc2)NC(=O)[C@H](Cc2ccc(C(=O)O)cc2)NC(=O)[C@H](Cc2cccc(C)c2)NC(=O)[C@H](CC(=O)O)NC(=O)[C@H](Cc2ccc(OCC(=O)O)cc2)NC1=O [Compound 2883] ({CH2CO}-[Nva]Y(Carboxymethyl)D[Phe(3-Me)][Phe(4-COOH)][Bip][Phe(4-COOH)][Orn][dL][Dab][Cha][Val(3-OH)]SC[Dab][AEEA][AEEA]-{NH(CH2)12COOH}; thioether N-14)
2.7 | CC[C@@H]1NC(=O)CSC[C@@H](C(=O)N[C@@H](CCN)C(=O)NCCOCCOCC(=O)NCCCCCCCCCCC(=O)O)NC(=O)[C@H](CO)NC(=O)[C@H](C(C)(C)O)NC(=O)[C@H](CC2CCCCC2)NC(=O)[C@H](CCN)NC(=O)[C@@H](CC(C)C)NC(=O)[C@H](CCCN)NC(=O)[C@H](Cc2ccc(OCC(=O)O)cc2)NC(=O)[C@H](Cc2ccc(-c3ccccc3)cc2)NC(=O)[C@H](Cc2ccc(OCC(=O)O)cc2)NC(=O)[C@H](Cc2cccc(C)c2)NC(=O)[C@H](CC(=O)O)NC(=O)[C@H](Cc2ccc(OCC(=O)O)cc2)NC1=O [Compound 2879] ({CH2CO}-[Abu]Y(Carboxymethyl)D[Phe(3-Me)]Y(Carboxymethyl)[Bip]Y(Carboxymethyl)[Orn][dL][Dab][Cha][Val(3-OH)]SC[Dab][AEEA][Aun]-OH; thioether N-14)
1.6 | CC[C@@H]1NC(=O)CSC[C@@H](C(=O)N[C@@H](CCN)C(=O)NCCOCCOCC(=O)NCCOCCOCC(=O)NCCCCCCCCCCC(=O)O)NC(=O)[C@H](CO)NC(=O)[C@H](C(C)(C)O)NC(=O)[C@H](CC2CCCCC2)NC(=O)[C@H](CCN)NC(=O)[C@@H](CC(C)C)NC(=O)[C@H](CCCN)NC(=O)[C@H](Cc2ccc(C(=O)O)cc2)NC(=O)[C@H](Cc2ccc(-c3ccccc3)cc2)NC(=O)[C@H](Cc2ccc(C(=O)O)cc2)NC(=O)[C@H](Cc2cccc(C)c2)NC(=O)[C@H](CC(=O)O)NC(=O)[C@H](Cc2ccc(OCC(=O)O)cc2)NC1=O [Compound 2882] ({CH2CO}-[Abu]Y(Carboxymethyl)D[Phe(3-Me)][Phe(4-COOH)][Bip][Phe(4-COOH)][Orn][dL][Dab][Cha][Val(3-OH)]SC[Dab][AEEA][AEEA][Aun]-OH; thioether N-14)
1.5 | CCC[C@@H]1NC(=O)CSC[C@@H](C(=O)N[C@@H](CCN)C(=O)NCCOCCOCC(=O)NCCCCCCCCCCC(=O)O)NC(=O)[C@H](CO)NC(=O)[C@H](C(C)(C)O)NC(=O)[C@H](CC2CCCCC2)NC(=O)[C@H](CCN)NC(=O)[C@@H](CC(C)C)NC(=O)[C@H](CCCN)NC(=O)[C@H](Cc2ccc(C(=O)O)cc2)NC(=O)[C@H](Cc2ccc(-c3ccccc3)cc2)NC(=O)[C@H](Cc2ccc(C(=O)O)cc2)NC(=O)[C@H](Cc2cccc(C)c2)NC(=O)[C@H](CC(=O)O)NC(=O)[C@H](Cc2ccc(OCC(=O)O)cc2)NC1=O [Compound 2877] ({CH2CO}-[Nva]Y(Carboxymethyl)D[Phe(3-Me)][Phe(4-COOH)][Bip][Phe(4-COOH)][Orn][dL][Dab][Cha][Val(3-OH)]SC[Dab][AEEA][Aun]-OH; thioether N-14)
